Our source for the MIC values is DBAASP.

In brackets after ≈: the same amount, converted by molar mass.

Test systems include Escherichia coli K99; Escherichia coli UB1005; Escherichia coli K88; Escherichia coli 078; Escherichia coli J2210; Escherichia coli O157:H7; Escherichia coli JJ2487; Escherichia coli JW0013; Escherichia coli MC1061.
Common to all, as to experiment: ≥ marks a high value that may be exact or a test limit, other limits are often not marked, values filed in µg/mL are converted to µM
Experiment [1] deals with Staphylococcus aureus ATCC 43300.
Experiment [2] has as its system Staphylococcus aureus ATCC 25923.
Experiment [3] relates to Candida albicans CGMCC 2.2086.
The subject of experiment [4] is Salmonella enterica subsp. enterica serovar Typhimurium ATCC 14028.
Experiment [5] concerns Candida parapsilosis CGMCC 2.3989.
The test system of experiment [6] is Escherichia coli ATCC 25922.
For experiment [7], the system named is Candida tropicalis CGMCC 2.1975.
The subject of experiment [8] is Salmonella enterica subsp. enterica serovar Typhimurium C77-31.
Experiment [9] has as its system Pseudomonas aeruginosa ATCC 27853.
The subject of experiment [10] is Staphylococcus aureus ATCC 29213.
The subject of experiment [11] is Staphylococcus epidermidis ATCC 12228.
Experiment [12] has as its system Staphylococcus aureus ATCC 6538.
Experiment [13] relates to Salmonella typhimurium DA6192.
Experiment [14] relates to Bacillus subtilis ATCC 6633.
Experiment [15] has as its system Escherichia coli ATCC 15597.
Experiment [16] concerns Klebsiella pneumoniae NCTC 5055.
Experiment [17] deals with Micrococcus luteus ATCC 49732.
Experiment [18] has as its system Candida albicans ATCC 10231.
Experiment [19] concerns Pseudomonas aeruginosa ATCC 10145.
For experiment [20], the system named is Staphylococcus aureus ATCC 33591.
Experiment [21] concerns Escherichia coli ATCC 2592.
For experiment [22], the system named is Cryptococcus neoformans ATCC 32045.
The test system of experiment [23] is Salmonella typhimurium SL1344.
Experiment [24] has as its system Salmonella enterica subsp. enterica serovar Enteritidis MH91989.

As for `CC[C@H](C)[C@H](NC(=O)[C@H](CCCCN)NC(=O)[C@H](C)NC(=O)[C@H](C)N)C(=O)N[C@H](C(=O)N[C@@H](CC(C)C)C(=O)N[C@@H](CC(N)=O)C(=O)N1CCC[C@H]1C(=O)N[C@@H](CCCCN)C(=O)N[C@@H](Cc1ccccc1)C(=O)N[C@@H](CCCN=C(N)N)C(N)=O)[C@@H](C)CC` [AAKIILNPKFR], the MIC – broadly, the smallest concentration in the dilution series that meets the test's criterion for growth inhibition – in experiment [1] was above 128 µM; with Escherichia coli K99, at least 128 µM; in experiment [2], above 128 µM; in experiment [3] it was at least 128 µM; in experiment [4] it was above 128 µM; against Escherichia coli UB1005, at least 128 µM. Besides, the MIC in experiment [5] is at least 128 µM; in the experiment with Escherichia coli K88, at least 128 µM; in experiment [6], above 128 µM; in experiment [7], at least 128 µM; against Escherichia coli 078, at least 128 µM; in [8] it was at least 128 µM. In addition, the MIC in experiment [9], in experiment [10] and in [11] was above 128 µM each time.
Turning to `CC[C@H](C)[C@H](N)C(=O)N[C@@H](CCC(N)=O)C(=O)N[C@@H](CCCCN)C(=O)N[C@H](C(=O)N[C@H](C(=O)N[C@@H](CCC(N)=O)C(=O)N[C@@H](CCCCN)C(=O)N[C@@H](CC(C)C)C(=O)N[C@@H](CC(C)C)C(=O)N[C@@H](CC(N)=O)C(=O)N[C@@H](CCCN=C(N)N)C(=O)N[C@@H](CC(C)C)C(=O)N[C@@H](CCC(N)=O)C(=O)N[C@@H](CCCCN)C(=O)N[C@H](C(=O)N[C@@H](CC(C)C)C(=O)N[C@@H](CCC(N)=O)C(=O)N[C@@H](CCCCN)C(=O)O)[C@@H](C)CC)[C@@H](C)CC)C(C)C` [IQKVIQKLLNRLQKILQK], the MIC in experiment [12] was above 50 µM; in experiment [13], 20.8 µM (≈ 45.9 µg/mL); in [14] it was 4.2 µM (≈ 9.26 µg/mL); in experiment [15] it was 3.1 µM (≈ 6.83 µg/mL); in experiment [9], 3.1 µM (≈ 6.83 µg/mL); in [16] it was 12.5 µM (≈ 27.6 µg/mL). This compound yielded an MIC in [17] of 1.05 µM (≈ 2.32 µg/mL).
On to `NCCCC[C@H](NC(=O)[C@H](Cc1ccccc1)NC(=O)[C@H](CCCCN)NC(=O)[C@H](CCCCN)NC(=O)[C@H](Cc1ccccc1)NC(=O)[C@H](CCCCN)NC(=O)[C@H](CCCCN)NC(=O)[C@H](Cc1ccccc1)NC(=O)[C@H](CCCCN)NC(=O)[C@H](CCCCN)NC(=O)[C@H](Cc1ccccc1)NC(=O)[C@H](CCCCN)NC(=O)[C@H](CCCCN)NC(=O)[C@H](Cc1ccccc1)NC(=O)[C@H](CCCCN)NC(=O)[C@H](CCCCN)NC(=O)[C@H](Cc1ccccc1)NC(=O)[C@H](CCCCN)NC(=O)[C@H](CCCCN)NC(=O)[C@H](Cc1ccccc1)NC(=O)[C@@H](N)CCCCN)C(=O)O` [KFKKFKKFKKFKKFKKFKKFK], for which the MIC in experiment [18] is 124 µM (≈ 354 µg/mL); in [19], at least 44 µM; in experiment [20] it was at least 176 µM; in [21], 15.4 µM (≈ 43.8 µg/mL); in [22] it was 17.5 µM (≈ 49.8 µg/mL).
On to `CC[C@H](C)[C@H](N)C(=O)N[C@H](C(=O)N[C@@H](CCCCN)C(=O)N[C@H](C(=O)N[C@H](C(=O)N[C@H](C(=O)N[C@@H](CCCCN)C(=O)N[C@@H](CC(C)C)C(=O)N[C@@H](CC(C)C)C(=O)N[C@@H](CC(N)=O)C(=O)N[C@@H](CCCN=C(N)N)C(=O)N[C@@H](CC(C)C)C(=O)N[C@H](C(=O)N[C@@H](CCCCN)C(=O)N[C@H](C(=O)N[C@@H](CC(C)C)C(=O)N[C@@H](CO)C(=O)N[C@@H](CCCCN)C(=O)O)[C@@H](C)CC)[C@@H](C)O)[C@@H](C)O)[C@@H](C)CC)C(C)C)[C@@H](C)O` [ITKVITKLLNRLTKILSK], for which the MIC in experiment [12] was 15 µM (≈ 31.2 µg/mL); in experiment [13] it was at least 40 µM; in experiment [14] it was 15 µM (≈ 31.2 µg/mL); in [15], 3.1 µM (≈ 6.46 µg/mL); in experiment [9], 25 µM (≈ 52.1 µg/mL); in experiment [16], at least 50 µM. In addition, the minimum inhibitory concentration (MIC) in [17] was 1.5 µM (≈ 3.12 µg/mL).
Regarding `CC[C@H](C)[C@H](NC(=O)[C@H](CCCN=C(N)N)NC(=O)[C@H](CCCN=C(N)N)NC(=O)[C@@H]1CCCN1C(=O)[C@@H]1CCCN1C(=O)[C@H](CCCN=C(N)N)NC(=O)[C@@H]1CCCN1C(=O)[C@H](CCCN=C(N)N)NC(=O)[C@@H]1CCCN1C(=O)[C@H](CC(C)C)NC(=O)[C@H](Cc1ccc(O)cc1)NC(=O)[C@@H]1CCCN1C(=O)[C@H](CCCN=C(N)N)NC(=O)[C@H](CCCCN)NC(=O)[C@H](CC(=O)O)NC(=O)[C@@H](N)C(C)C)C(=O)N[C@@H](Cc1ccc(O)cc1)C(=O)N[C@@H](CC(N)=O)C(=O)N[C@@H](CCCN=C(N)N)C(N)=O` [VDKRPYLPRPRPPRRIYNR], the minimal inhibitory concentration (MIC) with Escherichia coli J2210 was found to be 0.245 µM (≈ 0.6 µg/mL); with Escherichia coli O157:H7, 0.98 µM (≈ 2.4 µg/mL); against Escherichia coli JJ2487 it was 0.159 µM (≈ 0.39 µg/mL); in [23], 0.245 µM (≈ 0.6 µg/mL); against Escherichia coli JW0013, 0.339 µM (≈ 0.83 µg/mL); in experiment [24] it was 0.245 µM (≈ 0.6 µg/mL). This compound yielded an MIC in the experiment with Escherichia coli MC1061 of 0.122 µM (≈ 0.3 µg/mL).
As to `CC[C@H](C)[C@H](NC(=O)[C@H](CCCN=C(N)N)NC(=O)[C@H](CCCN=C(N)N)NC(=O)[C@@H]1CCCN1C(=O)[C@@H]1CCCN1C(=O)[C@H](CCCN=C(N)N)NC(=O)[C@@H]1CCCN1C(=O)[C@H](CCCN=C(N)N)NC(=O)[C@@H]1CCCN1C(=O)[C@H](CCCN=C(N)N)NC(=O)[C@H](Cc1ccc(O)cc1)NC(=O)[C@@H]1CCCN1C(=O)[C@H](CCCN=C(N)N)NC(=O)[C@H](CCCCN)NC(=O)[C@H](CC(=O)O)NC(=O)[C@@H](N)C(C)C)C(=O)N[C@@H](Cc1ccc(O)cc1)C(=O)N[C@@H](CC(N)=O)C(=O)N[C@@H](CCCN=C(N)N)C(N)=O` [VDKRPYRPRPRPPRRIYNR], the MIC against Escherichia coli J2210 is 0.12 µM (≈ 0.3 µg/mL); against Escherichia coli O157:H7, 0.666 µM (≈ 1.66 µg/mL); against Escherichia coli JJ2487, 0.169 µM (≈ 0.42 µg/mL); in experiment [23] it was 0.156 µM (≈ 0.39 µg/mL); in the experiment with Escherichia coli JW0013, 0.156 µM (≈ 0.39 µg/mL); in [24], 0.169 µM (≈ 0.42 µg/mL). Also, in the experiment with Escherichia coli MC1061, the MIC worked out at 0.0602 µM (≈ 0.15 µg/mL).
Turning to `CC(C)C[C@H](NC(=O)[C@H](CCCN=C(N)N)NC(=O)[C@H](CC(C)C)NC(=O)[C@H](CCCN=C(N)N)NC(=O)[C@H](CC(C)C)NC(=O)[C@H](CCCN=C(N)N)NC(=O)[C@H](CC(C)C)NC(=O)[C@H](CCCN=C(N)N)NC(=O)[C@H](CC(C)C)NC(=O)[C@H](CCCN=C(N)N)NC(=O)[C@H](CC(C)C)NC(=O)[C@H](CCCN=C(N)N)NC(=O)[C@@H](N)CC(C)C)C(=O)N[C@@H](CCCN=C(N)N)C(=O)O` [LRLRLRLRLRLRLR], the minimal inhibitory concentration (MIC) was 186 µM (≈ 354 µg/mL) in experiment [18]; at least 65.7 µM in experiment [19]; at least 186 µM in experiment [20]; 23 µM (≈ 43.8 µg/mL) in experiment [21]; 2.97 µM (≈ 5.66 µg/mL) in experiment [22].
